From the SangsterLogP compilation
Non-standard residues stand in square brackets, D forms with d. Residues, ends and D or L forms follow the SMILES beside them.

Columns and labels:
[1] = not given; remark: listed apart in the source
[2] = method code SF-RC, from DOI: 10.1021/jm050166g.s001, PMID: 16162001; conditions: pH 7.4
[3] = method code SF, from PMID: 21667; conditions: pH 10.1
[4] = method code SF-HPLC, from DOI: 10.1002/etc.5620170216
[5] = method code SF-HPLC, from DOI: 10.1002/jps.2600830510, PMID: 8071813
[6] = not given; remark: listed apart in the source
[7] = not given; remark: listed apart in the source
[8] = method code SF, from Blakemore, C.; Brown, H.; Durant, J.; Emmett, C.; Ganellin, R.; Parsons, E.; Rasmussen, C. (1980). SK&F 92994: a new histamine H2-receptor antagonist. COMMUNICATIONS: Part II. Br. J. Pharmacol., …; conditions: pH 8.5
[9] = not given; remark: listed apart in the source
[10] = method code SF-AS, from DOI: 10.1016/0006-2952(93)90503-o, PMID: 8373444; conditions: pH 7.4
[11] = method code SF-RC, from DOI: 10.1021/jm300199g, PMID: 22540974; conditions: pH 7.4
[12] = not given; remark: listed apart in the source
[13] = method code SF-RC, from DOI: 10.1002/jlcr.3404, PMID: 27126914; conditions: pH 7.4
[14] = method code SF-AS, from DOI: 10.1016/j.ejmech.2015.02.036, PMID: 25728022; conditions: pH 7.4
[15] = method code SF-GR, from DOI: 10.1016/s0022-3565(25)32611-x, PMID: 7230009
[16] = method code SF-RC, from DOI: 10.1002/jlcr.3310, PMID: 26094722; conditions: pH 7.4
[17] = method code SF-AS, from DOI: 10.1016/j.bmcl.2014.05.029, PMID: 24930836
[18] = method code pH-metric titration, from DOI: 10.1002/(sici)1096-9063(199607)47:3<265::aid-ps416>3.0.co;2-f
[19] = method code SF-RC, from DOI: 10.1111/j.2042-7158.1976.tb04141.x, PMID: 6703
[20] = method code SF-AS, from DOI: 10.1016/j.ejmech.2010.07.027, PMID: 20705371
[21] = from Xu, W.; Sun, J.; Zhang, T.; Ma, B.; Chen, D.; He, Z. (2007). Determination of equilibrium solubility of oridonin and its apparent oil-water partition coefficient by HPLC. Journal of Shenyang …
[22] = method code G-HPLC, from DOI: 10.1016/s0045-6535(97)00024-6
[23] = method code G-RC, from DOI: 10.1016/0300-483x(85)90031-9, PMID: 4049435
[24] = method code SF-HPLC, from DOI: 10.1023/a:1007546905874, PMID: 11205732; conditions: pH 7.4
[25] = method code SF, from DOI: 10.1016/s0378-5173(97)00352-9
[26] = method code SF, from DOI: 10.1074/jbc.m009093200, PMID: 11092892; conditions: pH 7.4
[27] = method code SF-AS, from DOI: 10.1002/chin.197711219; conditions: pH 7.4
[28] = method code SF-HPLC, from DOI: 10.1208/s12249-013-0046-y, PMID: 24297599; conditions: pH 4.0
[29] = not given; remark: listed apart in the source
[30] = method code SF-RC, from PMID: 2883979; conditions: pH 10.0
[31] = method code SF-AS, from DOI: 10.1007/bf02857814, PMID: 1608986
[32] = not given; remark: listed apart in the source
[33] = method code SF-RC, from DOI: 10.1016/j.nucmedbio.2007.03.011, PMID: 17591556; conditions: pH 8.9
[34] = method code SF-RC, from DOI: 10.1023/a:1015825912542, PMID: 1808606; conditions: pH 7.2
[35] = not given; remark: listed apart in the source
[36] = method code SF-HPLC, from Bhosale, A.; Agrawal, G.; Mishra, P. (2004). Preparation and characterization of mutual prodrugs of ibuprofen. Indian Journal of Pharmaceutical Sciences, 66, 158-163.; conditions: pH 1.2
[37] = method code SF-AS, from DOI: 10.1016/0147-6513(87)90041-8, PMID: 3830021
[38] = method code SF-HPLC, from DOI: 10.1023/a:1016462801968, PMID: 3334410
[39] = method code SF-HPLC, from DOI: 10.1002/jps.2600840622; conditions: pH 7.0
[40] = method code SF-HPLC, from PMID: 4074422; conditions: pH 7.0

c1ccc2c3c(ccc2c1)-c1cccc2cccc-3c12
logP: 6.04

c1ccc2c(c1)-c1cccc3c1c-2cc1ccccc13
logP [1]: 6.06

CNc1ccc(C=Cc2ccc(OCC(CO)CF)cc2)cc1 (stereo unspecified)
logD [2]: 2.95

COc1ccccc1N1CCN(CCCNc2cc(=O)n(C)c(=O)n2C)CC1
logD [3]: 1.6

c1ccc2cc3c(cc2c1)-c1cccc2cccc-3c12
logP [4]: 6.11

O=C(OCCCN1CCOCC1)c1ccccc1Nc1c(Cl)cccc1Cl
logP [5]: 2.81

COc1cc2c(N)nc(N3CCN(C(=O)OCC(C)(C)O)CC3)nc2c(OC)c1OC
logP [6]: 1.3

O=C(O)c1[nH]c2cc(Cl)cc(Cl)c2c1CN1CC(=O)N(c2cccc(OCCF)c2)C1=O
logP [7]: 2.16

Cc1[nH]cnc1CSCCNc1nc(=O)c(Cc2ccc3c(c2)OCO3)c[nH]1
logD [8]: 2.11

O=C(CN1C(=O)c2ccccc2C1=O)N1CCN(Cc2ccc(I)cc2)CC1
logP [9]: 3.6

O=C1OC(c2ccc(O)c(S(=O)(=O)O)c2)(c2ccc(O)c(S(=O)(=O)O)c2)c2c(Br)c(Br)c(Br)c(Br)c21
logD [10]: -0.55

CC(C)[C@H](C(=O)NO)N(Cc1ccccc1)S(=O)(=O)c1ccc(OCCF)cc1
logD [11]: 2.02

CC(=O)C1=C(O)C2C3c4c[nH]c5cccc(c45)CC3C(C)(C)N2C1=O (stereo unspecified)
logP [12]: 3.83

Cn1cc(C2=C(c3coc4ccccc34)C(=O)NC2=O)c2cc(I)ccc21
logD [13]: 3.18

C=CCn1c(C)nc2cc(Nc3nc(N4CCOCC4)nc4[nH]cnc34)ccc21
logD [14]: 1.59

CC1C2CCC3C(O)C2(CC(O)C2(O)C1CC(O)C2(C)C)CC3(C)O (stereo unspecified)
logP [15]: 1.51

CC(C)(C)n1ncc(OCc2cccc(Cn3cc(CCF)nn3)c2)c(Cl)c1=O
logD [16]: 2.54

Cc1cc(=O)oc2cc(OCC(O)Cn3cncn3)cc(OCC(O)Cn3cncn3)c12 (stereo unspecified)
logP [17]: 0.65

CCO/N=C(\CC)C1=C(O)CC(c2c(C)cc(C)cc2C)CC1=O (stereo unspecified)
logP [18]: 4.46

O=C(CCCN1CCN(c2ccccn2)CC1)c1ccc(F)cc1
logP [19]: 3.3

CC(C)(C)c1cc(CN2CCOCC2)c(O)c(CN2CCOCC2)c1
logP [20]: 2.03

C=C1C(=O)[C@]23C(O)C1CC[C@H]2[C@@]12CO[C@]3(O)C(O)[C@@H]1C(C)(C)CCC2O (stereo partly specified)
logP [21]: 1.66

c1ccc2nc3c4ccccc4c4ccccc4c3cc2c1
logP [22]: 5.66

c1ccc2c(c1)ccc1[nH]c3ccc4ccccc4c3c12
logP [23]: 5.55

O=C1OC(c2ccc(O)cc2)(c2ccc(O)cc2)c2ccccc21
logD [24]: 3.36

C/C(=C(/OCCOc1ccc(Cl)cc1)c1ccc(Cl)cc1Cl)n1ccnc1
logP [25]: 5.76

COC1=C(OC)C(=O)C(CCCCCCCCCCBr)=C(C)C1=O
logD [26]: 2.49

O=C1C(=C2C=CN(CCN3CCOCC3)C=C2)C(=O)c2ccccc21
logD [27]: 2.01

CC[C@@]1(O)C(=O)OCc2c1cc1n(c2=O)Cc2cc3c(N)cccc3nc2-1
logD [28]: 1.26

CC[C@H]1C[C@]2(C)[C@@H](O)CC[C@H]2[C@@H]2CCc3cc(O)ccc3[C@@H]12
logP [29]: 3.8

CN1CCC(N(Cc2ccccc2)c2ccccc2)CC1
logD [30]: 2.6

CCn1cc(C(=O)NC(CCCNC(=N)N)C(=O)OC)c(=O)c2ccc(C)nc21 (stereo unspecified)
logP [31]: 0.39

O=C1OC2(c3ccc(O)cc3Oc3cc(O)ccc32)c2ccccc21
logP [32]: 4.3

CN(C(=O)CF)c1cccc(-c2ccnc3c(C(=O)c4cccs4)cnn23)c1
logD [33]: 1.4

CC(=O)N[C@H](Cc1ccccc1)C(=O)N[C@H](Cc1ccccc1)C(N)=O (Ac-[dF]-[dF]-NH2)
logD [34]: 1.19

CCCN(C(C)C)C1COc2cccc(C(=O)NC(C)C)c2C1 (stereo unspecified)
logP [35]: 3.27

CC(C)Cc1ccc(C(C)C(=O)Oc2ccccc2C(N)=O)cc1 (stereo unspecified)
logD [36]: 1.54

COC(=O)CCN(CCC(=O)OC)c1ccc(/N=N/c2c(Cl)cc([N+](=O)[O-])cc2Br)cc1
logP [37]: 4.1

CC(C)(C)C(=O)OCC(COC(=O)C(C)(C)C)OCn1cnc2c(=O)[nH]c(N)nc21
logP [38]: 1.71

CCCN1CCN(c2cc3c(cc2F)c(=O)c(C(=O)O)cn3CC)CC1
logD [39]: 1.05

O=C1CCc2cc(OCCCCc3nnnn3C3CCCCC3)ccc2N1
logD [40]: 2.76
